# Reference: the NIST ThermoML archive (doi:10.1021/je060271a)
# ± gives the expanded uncertainty stated by the source.
# Conditions: 283.15 K, Liquid, Vibrating tube method
smiles,measurement,setting,value
CCCCCCCC(=O)OCC(COC(=O)CCCCCCC)(COC(=O)CCCCCCC)COC(=O)CCCCCCC [pentaerythritol tetraoctanoate],mass density,24659 kPa,983.6 ± 1.2 kg/m3
same,mass density,24685 kPa,983.7 ± 1.2 kg/m3
same,mass density,24711 kPa,983.7 ± 1.2 kg/m3
same,mass density,24742 kPa,983.8 ± 1.2 kg/m3
same,mass density,24769 kPa,983.8 ± 1.2 kg/m3
same,mass density,24795 kPa,983.8 ± 1.2 kg/m3
same,mass density,24827 kPa,983.7 ± 1.2 kg/m3
same,mass density,24853 kPa,983.8 ± 1.2 kg/m3
same,mass density,24885 kPa,983.8 ± 1.2 kg/m3
same,mass density,24912 kPa,983.7 ± 1.2 kg/m3
same,mass density,24938 kPa,983.8 ± 1.2 kg/m3
same,mass density,24965 kPa,983.8 ± 1.2 kg/m3
same,mass density,24997 kPa,983.8 ± 1.2 kg/m3
same,mass density,25024 kPa,983.8 ± 1.2 kg/m3
same,mass density,25051 kPa,983.9 ± 1.2 kg/m3
same,mass density,25084 kPa,983.9 ± 1.2 kg/m3
same,mass density,25110 kPa,983.9 ± 1.2 kg/m3
same,mass density,25143 kPa,983.8 ± 1.2 kg/m3
same,mass density,25170 kPa,983.9 ± 1.2 kg/m3
same,mass density,25197 kPa,984 ± 1.2 kg/m3
same,mass density,25229 kPa,984 ± 1.2 kg/m3
same,mass density,25256 kPa,984 ± 1.2 kg/m3
same,mass density,25284 kPa,984 ± 1.2 kg/m3
same,mass density,25312 kPa,984 ± 1.2 kg/m3
same,mass density,25344 kPa,984 ± 1.2 kg/m3
same,mass density,25372 kPa,984 ± 1.2 kg/m3
same,mass density,25405 kPa,983.9 ± 1.2 kg/m3
same,mass density,25433 kPa,984.1 ± 1.2 kg/m3
same,mass density,25461 kPa,984.1 ± 1.2 kg/m3
same,mass density,25494 kPa,984.1 ± 1.2 kg/m3
same,mass density,25521 kPa,984.2 ± 1.2 kg/m3
same,mass density,25549 kPa,984.1 ± 1.2 kg/m3
same,mass density,25583 kPa,984.1 ± 1.2 kg/m3
same,mass density,25611 kPa,984.2 ± 1.2 kg/m3
same,mass density,25639 kPa,984.2 ± 1.2 kg/m3
same,mass density,25673 kPa,984.2 ± 1.2 kg/m3
same,mass density,25701 kPa,984.1 ± 1.2 kg/m3
same,mass density,25730 kPa,984.4 ± 1.2 kg/m3
same,mass density,25758 kPa,984.3 ± 1.2 kg/m3
same,mass density,25792 kPa,984.2 ± 1.2 kg/m3
same,mass density,25821 kPa,984.3 ± 1.2 kg/m3
same,mass density,25850 kPa,984.3 ± 1.2 kg/m3
same,mass density,25884 kPa,984.3 ± 1.2 kg/m3
same,mass density,25912 kPa,984.3 ± 1.2 kg/m3
same,mass density,25941 kPa,984.2 ± 1.2 kg/m3
same,mass density,25976 kPa,984.3 ± 1.2 kg/m3
same,mass density,26004 kPa,984.3 ± 1.2 kg/m3
same,mass density,26034 kPa,984.5 ± 1.2 kg/m3
same,mass density,26069 kPa,984.4 ± 1.2 kg/m3
same,mass density,26098 kPa,984.3 ± 1.2 kg/m3
same,mass density,26126 kPa,984.4 ± 1.2 kg/m3
same,mass density,26162 kPa,984.4 ± 1.2 kg/m3
same,mass density,26191 kPa,984.5 ± 1.2 kg/m3
same,mass density,26220 kPa,984.4 ± 1.2 kg/m3
same,mass density,26250 kPa,984.4 ± 1.2 kg/m3
same,mass density,26286 kPa,984.5 ± 1.2 kg/m3
same,mass density,26315 kPa,984.5 ± 1.2 kg/m3
same,mass density,26350 kPa,984.6 ± 1.2 kg/m3
same,mass density,26380 kPa,984.6 ± 1.2 kg/m3
same,mass density,26411 kPa,984.6 ± 1.2 kg/m3
same,mass density,26442 kPa,984.6 ± 1.2 kg/m3
same,mass density,26478 kPa,984.6 ± 1.2 kg/m3
same,mass density,26508 kPa,984.6 ± 1.2 kg/m3
same,mass density,26538 kPa,984.6 ± 1.2 kg/m3
same,mass density,26568 kPa,984.6 ± 1.2 kg/m3
same,mass density,26604 kPa,984.5 ± 1.2 kg/m3
same,mass density,26634 kPa,984.6 ± 1.2 kg/m3
same,mass density,26666 kPa,984.6 ± 1.2 kg/m3
same,mass density,26702 kPa,984.7 ± 1.2 kg/m3
same,mass density,26733 kPa,984.7 ± 1.2 kg/m3
same,mass density,26770 kPa,984.7 ± 1.2 kg/m3
same,mass density,26802 kPa,984.7 ± 1.2 kg/m3
same,mass density,26834 kPa,984.8 ± 1.2 kg/m3
same,mass density,26866 kPa,984.8 ± 1.2 kg/m3
same,mass density,26897 kPa,984.8 ± 1.2 kg/m3
same,mass density,26929 kPa,984.9 ± 1.2 kg/m3
same,mass density,26966 kPa,984.8 ± 1.2 kg/m3
same,mass density,26997 kPa,984.8 ± 1.2 kg/m3
same,mass density,27034 kPa,984.8 ± 1.2 kg/m3
same,mass density,27066 kPa,984.8 ± 1.2 kg/m3
same,mass density,27098 kPa,984.9 ± 1.2 kg/m3
same,mass density,27129 kPa,984.9 ± 1.2 kg/m3
same,mass density,27167 kPa,984.9 ± 1.2 kg/m3
same,mass density,27199 kPa,985 ± 1.2 kg/m3
same,mass density,27237 kPa,985.1 ± 1.2 kg/m3
same,mass density,27270 kPa,984.9 ± 1.2 kg/m3
same,mass density,27302 kPa,985.1 ± 1.2 kg/m3
same,mass density,27340 kPa,985.1 ± 1.2 kg/m3
same,mass density,27372 kPa,985 ± 1.2 kg/m3
same,mass density,27404 kPa,985 ± 1.2 kg/m3
same,mass density,27437 kPa,985 ± 1.2 kg/m3
same,mass density,27476 kPa,985.2 ± 1.2 kg/m3
same,mass density,27508 kPa,985.2 ± 1.2 kg/m3
same,mass density,27546 kPa,985.1 ± 1.2 kg/m3
same,mass density,27579 kPa,985.1 ± 1.2 kg/m3
same,mass density,27612 kPa,985.2 ± 1.2 kg/m3
same,mass density,27651 kPa,985.2 ± 1.2 kg/m3
same,mass density,27685 kPa,985.1 ± 1.2 kg/m3
same,mass density,27718 kPa,985.1 ± 1.2 kg/m3
same,mass density,27752 kPa,985.1 ± 1.2 kg/m3
same,mass density,27792 kPa,985.2 ± 1.3 kg/m3
same,mass density,27825 kPa,985.3 ± 1.2 kg/m3
same,mass density,27859 kPa,985.3 ± 1.2 kg/m3
same,mass density,27899 kPa,985.3 ± 1.2 kg/m3
same,mass density,27932 kPa,985.4 ± 1.2 kg/m3
same,mass density,27972 kPa,985.3 ± 1.2 kg/m3
same,mass density,28007 kPa,985.3 ± 1.2 kg/m3
same,mass density,28040 kPa,985.5 ± 1.2 kg/m3
same,mass density,28074 kPa,985.5 ± 1.2 kg/m3
same,mass density,28116 kPa,985.4 ± 1.2 kg/m3
same,mass density,28150 kPa,985.5 ± 1.2 kg/m3
same,mass density,28185 kPa,985.4 ± 1.2 kg/m3
same,mass density,28226 kPa,985.4 ± 1.2 kg/m3
same,mass density,28260 kPa,985.5 ± 1.2 kg/m3
same,mass density,28302 kPa,985.5 ± 1.2 kg/m3
same,mass density,28336 kPa,985.5 ± 1.2 kg/m3
same,mass density,28371 kPa,985.5 ± 1.2 kg/m3
same,mass density,28406 kPa,985.5 ± 1.2 kg/m3
same,mass density,28448 kPa,985.5 ± 1.2 kg/m3
same,mass density,28483 kPa,985.6 ± 1.2 kg/m3
same,mass density,28519 kPa,985.5 ± 1.3 kg/m3
same,mass density,28561 kPa,985.6 ± 1.2 kg/m3
same,mass density,28596 kPa,985.7 ± 1.2 kg/m3
same,mass density,28632 kPa,985.7 ± 1.2 kg/m3
same,mass density,28676 kPa,985.6 ± 1.2 kg/m3
same,mass density,28712 kPa,985.7 ± 1.2 kg/m3
same,mass density,28748 kPa,985.8 ± 1.2 kg/m3
same,mass density,28784 kPa,985.6 ± 1.2 kg/m3
same,mass density,28827 kPa,985.7 ± 1.2 kg/m3
same,mass density,28863 kPa,985.8 ± 1.2 kg/m3
same,mass density,28900 kPa,985.8 ± 1.2 kg/m3
same,mass density,28943 kPa,985.7 ± 1.2 kg/m3
same,mass density,28980 kPa,985.8 ± 1.2 kg/m3
same,mass density,29017 kPa,985.8 ± 1.2 kg/m3
same,mass density,29061 kPa,985.9 ± 1.2 kg/m3
same,mass density,29097 kPa,985.9 ± 1.2 kg/m3
same,mass density,29135 kPa,985.9 ± 1.2 kg/m3
same,mass density,29173 kPa,985.9 ± 1.2 kg/m3
same,mass density,29217 kPa,985.8 ± 1.2 kg/m3
same,mass density,29255 kPa,985.9 ± 1.2 kg/m3
same,mass density,29293 kPa,986 ± 1.2 kg/m3
same,mass density,29338 kPa,986 ± 1.2 kg/m3
same,mass density,29375 kPa,986 ± 1.2 kg/m3
same,mass density,29413 kPa,986.1 ± 1.2 kg/m3
same,mass density,29458 kPa,986 ± 1.2 kg/m3
same,mass density,29496 kPa,986 ± 1.2 kg/m3
same,mass density,29534 kPa,986.1 ± 1.2 kg/m3
same,mass density,29579 kPa,986.1 ± 1.2 kg/m3
